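Test compounds were applied to cells in 96-well plates for 48 hours at 5 doses. Abbreviation: GI50, concentration required for 50% inhibition of growth. TGI: concentration producing complete growth inhibition.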
Legend:
Test in all cases: DTP human tumour cell line panel, 48 h
NCI-H522 lung = test system: NCI-H522 lung
NCI-H226 lung = test system: NCI-H226 lung
HL-60(TB) leukemia = test system: HL-60(TB) leukemia
IGROV1 ovarian = test system: IGROV1 ovarian
COLO 205 colon = test system: COLO 205 colon
SK-MEL-5 melanoma = test system: SK-MEL-5 melanoma
K-562 leukemia = test system: K-562 leukemia
SNB-19 CNS = test system: SNB-19 CNS
CAKI-1 renal = test system: CAKI-1 renal
DU-145 prostate = test system: DU-145 prostate
MDA-MB-231 breast = test system: MDA-MB-231 breast

SMILES | TGI (NCI-H522 lung) [µM] | TGI (NCI-H226 lung) [µM] | TGI (HL-60(TB) leukemia) [µM] | TGI (IGROV1 ovarian) [µM] | TGI (COLO 205 colon) [µM] | TGI (SK-MEL-5 melanoma) [µM] | TGI (K-562 leukemia) [µM] | TGI (SNB-19 CNS) [µM] | TGI (CAKI-1 renal) [µM] | GI50 (CAKI-1 renal) [µM] | GI50 (NCI-H522 lung) [µM] | GI50 (NCI-H226 lung) [µM] | GI50 (HL-60(TB) leukemia) [µM] | GI50 (IGROV1 ovarian) [µM] | GI50 (COLO 205 colon) [µM] | GI50 (SNB-19 CNS) [µM] | TGI (DU-145 prostate) [µM] | GI50 (SK-MEL-5 melanoma) [µM] | TGI (MDA-MB-231 breast) [µM]
S=c1ncc2c([nH]1)C1c3ccccc3C2c2ccccc21 | > 100 | > 100 | 70.3 | > 100 | > 100 | > 100 | > 100 | > 100 | – | – | – | – | – | – | – | – | – | – | –
Cn1c2ccccc2c(=O)c2c(O)cc3c(c21)C=CC(C)(C)O3 | > 25 | > 25 | > 20.1 | > 25 | > 25 | > 25 | > 25 | > 25 | > 10.1 | – | – | – | – | – | – | – | – | – | –
C/C(=N\NC(=O)c1ccccc1O)c1cccc(/C(C)=N/NC(=O)c2ccccc2O)n1.O=S(=O)([O-])[O-].[Fe+2] | > 100 | > 100 | 0.341 | > 100 | > 100 | – | > 100 | > 100 | > 100 | > 100 | > 100 | > 100 | 0.156 | 47.7 | > 100 | > 100 | – | – | –
CCOc1ccccc1N=Nc1c(-c2ccccc2)nn(C(=O)CC(=O)Nc2cccc(C)c2)c1-c1ccccc1 | > 100 | > 100 | > 100 | > 100 | > 100 | > 100 | > 100 | > 100 | > 100 | – | – | – | – | – | – | – | – | – | –
C/C=C1\CN2CCc3c([nH]c4ccccc34)C2CC1CCO (stereo not given) | > 100 | > 100 | > 100 | > 100 | > 100 | > 100 | > 100 | > 100 | – | – | – | – | – | – | – | – | – | – | –
Cc1ccc(C)n2c1nc1ccccc12 | – | > 100 | > 100 | > 100 | > 100 | > 100 | > 100 | > 100 | – | – | – | – | – | – | – | – | > 100 | – | –
COc1cc(C2(c3ncc[nH]3)SSSCC2O)ccc1O (stereo not given) | 90.6 | > 100 | > 67.9 | > 100 | > 59.8 | > 100 | > 56.5 | > 100 | > 100 | – | – | – | – | – | – | – | – | – | –
C=C1C(=O)O[C@H]2C1C[C@@H](OC(C)=O)/C(C)=C/CC[C@@]1(C)O[C@H]21 (stereo not given in full) | 10.2 | – | – | 21.2 | 14.2 | 18.4 | 39.5 | 78 | 22.1 | – | – | – | – | – | – | – | 27.8 | – | –
COc1nc(N)c(NC(C)=O)c(=O)n1C | – | – | > 100 | > 100 | > 100 | – | > 100 | > 100 | > 100 | – | – | – | – | – | – | – | – | – | –
O=C(N/N=C/c1cc(Br)cc(Br)c1[O-])c1ccccc1O.O=C(N/N=C/c1cc(Br)cc(Br)c1[O-])c1ccccc1O.[Zn+2] | 1.47 | 3.19 | 0.547 | 5.55 | 20.9 | 2.58 | – | 12.2 | 7.29 | – | – | – | – | – | – | – | – | – | –
CC(C)C1NC(=O)CC(c2ccccc2)N(N=O)C1c1ccccc1 (stereo not given) | > 100 | > 100 | > 100 | > 100 | > 100 | > 100 | > 100 | > 100 | > 100 | – | – | – | – | – | – | – | – | – | –
COc1cc2c(c(OC)c1OC)-c1ccc(SC)c(=O)cc1[C@@H](O)CC2 | – | 0.0169 | – | – | – | – | > 100 | – | > 100 | – | 0.0116 | – | 6.13 | – | – | – | > 100 | 0.000311 | –
Cn1cc2ccccc2c1-c1nc(F)nc(Oc2ccc3c(c2)CC[C@@H]2C3CC[C@@]3(C)C2C[C@H](O)[C@@H]3O)n1 (stereo not given in full) | 27.2 | – | 43.7 | 45.4 | 32.4 | 36.8 | 42.8 | 29.5 | 34.8 | – | – | – | – | – | – | – | – | – | –
COc1ccc(-c2c3c(n(C4OC(CO)C(O)C(O)C4O)c(=S)c2C#N)CCCC3)cc1 (stereo not given) | – | > 100 | > 100 | > 100 | > 100 | > 100 | – | – | > 100 | – | – | – | – | – | – | – | – | – | > 100
CCCCCCCCCOCC(COP(=O)([O-])OCC[N+](C)(C)C)OC (stereo not given) | > 100 | > 100 | > 100 | > 100 | > 100 | > 100 | > 100 | > 100 | > 100 | – | – | – | – | – | – | – | – | – | –
O=C(c1ccc(Cl)cc1)c1ccc(OCCCOc2ccc(C(=O)c3ccc(Cl)cc3)cc2Cl)c(Cl)c1 | > 100 | > 100 | > 100 | > 100 | > 100 | > 100 | > 100 | > 100 | > 100 | – | – | – | – | – | – | – | – | – | –
CC1CCC2CC(=O)OC([C@@H]3C(=O)O[C@@H](C4=CCCC4)C4C(C)CCC43)C12 (stereo not given in full) | > 100 | > 100 | 65.1 | > 100 | > 100 | > 100 | > 100 | > 100 | > 100 | – | – | – | – | – | – | – | – | – | –
CCOC(=O)CC(NC(=O)c1[nH]cnc1/N=N/N(C)C)C(=O)OCC (stereo not given) | > 100 | > 100 | > 100 | > 100 | > 100 | > 100 | > 100 | > 100 | > 100 | – | – | – | – | – | – | – | – | – | –
